Measured values reported in patent US11976083B2, “Inhibitors of peptidylarginine deiminases” (Gilead Sciences, Inc., priority 2020, dated 2024).

Target: T1, human PAD4 (Homo sapiens, UniProt Q9UM07)
T1 construct: human PAD4 (NM_012387), A2-P663, was PCR amplified; His-SUMO (N, cleaved yes); made in house; host or cells: E. coli BL21(DE3)
Assay: In vitro PAD4 BAEE biochemical assay
Conditions: BAEE substrate 3 mM, 5 nM PAD4, 2 mM calcium chloride; geometric mean of multiple experiments
Outline: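 Recombinant human PAD4 (5 nM final) with 2 mM CaCl2 was preincubated with compound 30 min at 25 °C in MOPS buffer pH 7.6, then reacted with 3 mM BAEE for 2 h at 25 °C. After EDTA stop, released ammonia was detected by o-phthalaldehyde/DTT fluorescence (ex 405/em 535 nm); IC50 from four-parameter fit, geometric mean.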

T1 sequence (Q9UM07 2-663): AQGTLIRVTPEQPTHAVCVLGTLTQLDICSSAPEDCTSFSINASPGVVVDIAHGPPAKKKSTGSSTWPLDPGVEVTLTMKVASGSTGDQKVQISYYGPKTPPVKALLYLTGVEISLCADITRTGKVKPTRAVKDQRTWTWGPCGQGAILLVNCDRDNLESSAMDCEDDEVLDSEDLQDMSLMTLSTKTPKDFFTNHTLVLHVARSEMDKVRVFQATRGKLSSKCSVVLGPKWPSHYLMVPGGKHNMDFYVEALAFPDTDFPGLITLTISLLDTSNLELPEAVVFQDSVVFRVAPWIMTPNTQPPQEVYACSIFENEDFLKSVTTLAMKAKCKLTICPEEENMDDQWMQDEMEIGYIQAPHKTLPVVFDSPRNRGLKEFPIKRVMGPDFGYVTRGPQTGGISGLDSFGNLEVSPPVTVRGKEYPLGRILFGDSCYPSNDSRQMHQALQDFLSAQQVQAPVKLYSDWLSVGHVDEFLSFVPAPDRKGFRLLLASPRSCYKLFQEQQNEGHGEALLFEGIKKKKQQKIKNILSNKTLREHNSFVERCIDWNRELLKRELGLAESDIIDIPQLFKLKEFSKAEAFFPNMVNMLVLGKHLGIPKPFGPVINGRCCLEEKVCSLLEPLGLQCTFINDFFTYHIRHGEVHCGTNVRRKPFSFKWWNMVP

IC50	SMILES
68 nM	COc1cc(C(=O)N2CCC[C@@H](N)C2)cc2nc(-c3cc4ccc5cc4n3CCC/C=C/CC(C)(C)C(=O)N[C@@H]5C)n(C)c12 [Example 273, (5˜{E},11˜{R})-17-[5-[(3˜{R})-3-aminopiperidine-1-carbonyl]-7-methoxy-1-methyl-benzimidazol-2-yl]-8,8,11-trimethyl-1,10-diazatricyclo[10.5.2.0^{15,18}]nonadeca-5,12(19),13,15(18),16-pentaen-9-one]
34 nM	C[C@@H]1C[C@H]1n1c(-c2cc3ccc4nc3n2CCCCC[C@@H]2C[C@H]2C(=O)N[C@@H]4C)nc2cc(C(=O)N[C@H]3CNCC[C@@H]3F)c(F)cc21 [Example 416, 6-fluoro-~{N}-[(3~{S},4~{S})-4-fluoro-3-piperidyl]-1-[(1~{R},2~{R})-2-methylcyclopropyl]-2-[(2~{R},5~{R},7~{R})-2-methyl-4-oxo-3,13,19-triazatetracyclo[11.5.2.0^{5,7}.0^{16,20}]icosa-1(19),14,16(20),17-tetraen-14-yl]benzimidazole-5-carboxamide]
175 nM	COc1cc(C(=O)N2[C@H]3CC[C@@H]2[C@H](N)C3)cc2nc(-c3cc4ccc5nc4n3CCCCCC(=O)Nc3ncccc3-5)n(C)c12 [Example 92, 16-[5-[(1~{R},2~{R},4~{S})-2-amino-7-azabicyclo[2.2.1]heptane-7-carbonyl]-7-methoxy-1-methyl-benzimidazol-2-yl]-6,8,15,21-tetrazatetracyclo[13.5.2.0^{2,7}.0^{18,22}] docosa-1(21),2(7),3,5,16,18(22),19-heptaen-9-one]
81 nM	C[C@H]1NC(=O)C(C)(C)CCCCCCn2c(-c3nc4cc(C(=O)N[C@H]5CNCC[C@@H]5F)c(F)cc4n3C)cc3ccc1nc32 [Example 591, 6-fluoro-~{N}-[(3~{S},4~ {S})-4-fluoro-3-piperidyl]-1-methyl-2-[(11~ {R})-8,8,11-trimethyl-9-oxo-1,10,19-triazatricyclo [10.5.2.0^{15,18}]nonadeca-12,14,16,18-tetraen-17-yl]benzimidazole-5-carboxamide]
85 nM	COc1cc(C(=O)N2CCC[C@@H](N)C2)cc2nc(-c3cc4ccc5nc4n3CC[C@H]3C[C@H]3COCCC(=O)N[C@@H]5C)n(C)c12 [Example 306, (4~{R},6~{R},13~{R})-19-[5-[(3~{R})-3-aminopiperidine-1-carbonyl]-7-methoxy-1-methyl-benzimidazol-2-yl]-13-methyl-8-oxa-1,12,21-triazatetracyclo[12.5.2.0^{4,6}.0^{17,20}] henicosa-14(21),15,17(20),18-tetraen-11-one]
40 nM	C[C@H]1NC(=O)c2ccc(Cl)nc2CCCCCn2c(-c3nc4cc(C(=O)N5C[C@H](N)[C@@H]6CC[C@H]5C6)cc(F)c4n3CC(F)F)cc3ccc1nc32 [Example 925, (2~{R})-17-[5-[(1~{S),4~{R},5~ {R})-4-amino-2-azabicyclo[3.2.1]octane-2-carbonyl]-1-(2,2-difluoroethyl)-7-fluoro-benzimidazol-2-yl]-8-chloro-2-methyl-3,9,16,22-tetrazatetracyclo[14.5.2.0^ {5,10}.0^{19,23}]tricosa-1(22),5(10),6,8,17,19(23),20-heptaen-4-one]
158 nM	COc1cc(C(=O)N2[C@H]3CC[C@@H]2[C@H](N)C3)cc2nc(-c3cc4ccc5nc4n3C[C@H]3C[C@H]3CC[C@H]3C[C@@H]3C(=O)N[C@@H]5C)n(C)c12 [Example 143, (3~{S),5~{R},8~{S},10~{S},13~{R})-19-[5-[(1~{R},2~{R},4~{S})-2-amino-7-azabicyclo[2.2.1]heptane-7-carbonyl]-7-methoxy-1-methyl-benzimidazol-2-yl]-13-methyl-1,12,21-triazapentacyclo[12.5.2.0^{3,5}.0^{8,10}.0^ {17,20}]henicosa-14(21),15,17(20),18-tetraen-11-one]
25 nM	CO[C@@H]1CCN(C(=O)c2cc(F)c3c(c2)nc(-c2cc4ccc5nc4n2CC(F)(F)CCC[C@@H]2C[C@H]2C(=O)N[C@@H]5C)n3[C@@H]2C[C@@H]2F)C[C@@H]1N [Example 746, (2~{R},5~{R},7~{R})-14-[5-[(3~{S),4~{R})-3-amino-4-methoxy-piperidine-1-carbonyl]-7-fluoro-1-[(1~{R},2~{S})-2-fluorocyclopropyl]benzimidazol-2-yl]-11,11-difluoro-2-methyl-3,13,19-triazatetracyclo [11.5.2.0^{5,7}.0^{16,20}] icosa-1(19),14,16(20), 17-tetraen-4-one]
388 nM	COc1cc(C(=O)N2CC[C@@H](OC)[C@@H](N)C2)cc2nc(-c3cc4ccc5nc4n3CCCCC[C@@H]3C[C@@H]3C(=O)N[C@@H]5C)n(C)c12 [Example 524, (2~{R},5~{S},7~{R})-14-[5-[(3~{S},4~{R})-3-amino-4-methoxy-piperidine-1-carbonyl]-7-methoxy-1-methyl-benzimidazol-2-yl]-2-methyl-3,13,19-triazatetracyclo[11.5.2.0^ {5,7}.0^{16,20}]icosa-1(19),14,16(20),17-tetraen-4-one]
15 nM	C[C@H]1NC(=O)c2ccc(Cl)nc2CCCCCn2c(-c3nc4cc(C(=O)N5[C@H]6CC[C@@H]5[C@H](N)C6)cc(F)c4n3C3CC3)cc3ccc1nc32 [Example 808, (2~{R})-17-[5-[(1~{R},2~{R},4~ {S})-2-amino-7-azabicyclo [2.2.1]heptane-7-carbonyl]-1-cyclopropyl-7-fluoro-benzimidazol-2-yl]-8-chloro-2-methyl-3,9,16,22-tetrazatetracyclo[14.5.2.0^ {5,10}.0^{19,23}]tricosa-1(21),5(10),6,8,17,19,22-heptaen-4-one]
77 nM	COc1cc(C(=O)N2CCC[C@@H](N)C2)cc2nc(-c3cc4ccc5nc4n3CCCCCC(C)(C)C(=O)N[C@@H]5C)n(C)c12 [Example 58, (10~{R})-16-[5-[(3~{R})-3-aminopiperidine-1-carbonyl]-7-methoxy-1-methyl-benzimidazol-2-yl]-7,7,10-trimethyl-1,9,18-triazatricyclo[9.5.2.0^{14,17}]octadeca-11(18),12,14(17),15-tetraen-8-one]
40 nM	C[C@H]1NC(=O)c2ccc(Cl)nc2CCCCCn2c(-c3nc4cc(C(=O)N5C[C@H](N)[C@@H]6CC[C@H]5C6)cc(OC(F)(F)F)c4n3C)cc3ccc1nc32 [Example 714, (2~{R})-17-[5-[(1~{S},4~{R}, 5~{R})-4-amino-2-azabicyclo [3.2.1]octane-2-carbonyl]-1-methyl-7-(trifluoromethoxy)benzimidazol-2-yl]-8-chloro-2-methyl-3,9,16,22-tetrazatetracyclo[14.5.2.0^ {5,10).0^{19,23}]tricosa-1(22), 5(10),6,8,17,19(23),20-heptaen-4-one]
137 nM	COc1cc(C(=O)N2CC[C@@H](OC)[C@@H](N)C2)cc2nc(-c3cc4ccc5nc4n3CCCCCc3cccc(C)c3C(=O)N[C@@H]5C)n(C)c12 [Example 362, (2~{R})-17-[5-[(3~{S},4~{R})-3-amino-4-methoxy-piperidine-1-carbonyl]-7-methoxy-1-methyl-benzimidazol-2-yl]-2,6-dimethyl-3,16,22-triazatetracyclo[14.5.2.0^{5,10}.0^{19,23}] tricosa-1(22),5(10),6,8,17,19(23),20-heptaen-4-one]
40 nM	COc1cc(C(=O)N2[C@H]3CC[C@@H]2[C@H](N)C3)cc2nc(-c3cc4ccc5nc4n3CC3(CCCCCC(=O)N[C@@H]5C)CC3)n(C)c12 [Example 139, (11~{R})-17-[5-[(1~{R},2~{R},4~{S})-2-amino-7-azabicyclo[2.2.1]heptane-7-carbonyl]-7-methoxy-1-methyl-benzimidazol-2-yl]-11-methyl-spiro[1,10,19-triazatricyclo[10.5.2.0^{15,18}]nonadeca-12(19),13,15(18),16-tetraene-3,1′-cyclopropane]-9-one]
13 nM	COc1cc(C(=O)N2CCC[C@@H](N)C2)cc2nc(-c3cc4ccc5nc4n3CCCCCCCCC(=O)N[C@@H]5C)n(C)c12 [Example 283, (12~{R})-18-[5-[(3~{R})-3-aminopiperidine-1-carbonyl]-7-methoxy-1-methyl-benzimidazol-2-yl]-12-methyl-1,11,20-triazatricyclo[11.5.2.0^{16,19}]icosa-13(20),14,16(19),17-tetraen-10-one]
205 nM	COc1cc(C(=O)N2CC[C@@H](OC(F)F)[C@@H](N)C2)cc2nc(-c3cc4ccc5nc4n3CC(F)(F)CCCCC3(CC(F)(F)C3)C(=O)N[C@@H]5C)n(C)c12 [Example 822, (11~{R})-17-[5-[(3~{S},4~ {R})-3-amino-4-(difluoromethoxy)piperidine-1-carbonyl]-7-methoxy-1-methyl-benzimidazol-2-yl]-1′,1′,3,3-tetrafluoro-11-methyl-spiro [1,10,19-triazatricyclo [10.5.2.0^{15,18}]nonadeca-12(19),13,15(18),16-tetraene-8,3′-cyclobutane]-9-one]
10 nM	COc1cc(C(=O)N2C[C@H](N)[C@@H]3CC[C@H]2C3)cc2nc(-c3cc4ccc5nc4n3CCCCCc3nc(C(F)F)ccc3C(=O)N[C@@H]5C)n(C3CC3)c12 [Example 819, (2~{R})-17-[5-[(1~{S},4~{R}, 5~{R})-4-amino-2-azabicyclo [3.2.1]octane-2-carbonyl]-1-cyclopropyl-7-methoxy-benzimidazol-2-yl]-8-(difluoromethyl)-2-methyl-3,9,16,22-tetrazatetracyclo[14.5.2.0^ {5,10}.0^{19,23}] tricosa-1(21),5(10),6,8,17, 19,22-heptaen-4-one]
24 nM	C[C@H]1NC(=O)[C@@H]2C[C@H]2CCCCCn2c(-c3nc4cc(C(=O)N[C@H]5CNCC[C@@H]5F)c(F)cn4c3C3CC3)cc3ccc1nc32 [Example 580, 3-cyclopropyl-6-fluoro-~ {N}-[(3~{S},4~{S})-4-fluoro-3-piperidyl]-2-[(2~{R},5~{R},7~{R})-2-methyl-4-oxo-3,13,19-triazatetracyclo[11.5.2.0^ {5,7}.0^{16,20}]icosa-1(19),14,16(20),17-tetraen-14-yl]imidazo[1,2-a] pyridine-7-carboxamide]
